Experimental data published in ChEMBL document CHEMBL1125816, “[123I]-2 beta-carbomethoxy-3 beta-(4-iodophenyl)tropane: high-affinity SPECT radiotracer of monoamine reuptake sites in brain” (J Med Chem, 1991).
pIC50: −log10 of the molar value.

Biological target: Sodium-dependent serotonin transporter (Rattus norvegicus, UniProt P31652)
Assay: Compound was tested for binding affinity to Serotonin transporter sites in homogenates prepared from rat cortical membranes using [3H]paroxetine as radioligand

Sequence of Sodium-dependent serotonin transporter (P31652 whole entry): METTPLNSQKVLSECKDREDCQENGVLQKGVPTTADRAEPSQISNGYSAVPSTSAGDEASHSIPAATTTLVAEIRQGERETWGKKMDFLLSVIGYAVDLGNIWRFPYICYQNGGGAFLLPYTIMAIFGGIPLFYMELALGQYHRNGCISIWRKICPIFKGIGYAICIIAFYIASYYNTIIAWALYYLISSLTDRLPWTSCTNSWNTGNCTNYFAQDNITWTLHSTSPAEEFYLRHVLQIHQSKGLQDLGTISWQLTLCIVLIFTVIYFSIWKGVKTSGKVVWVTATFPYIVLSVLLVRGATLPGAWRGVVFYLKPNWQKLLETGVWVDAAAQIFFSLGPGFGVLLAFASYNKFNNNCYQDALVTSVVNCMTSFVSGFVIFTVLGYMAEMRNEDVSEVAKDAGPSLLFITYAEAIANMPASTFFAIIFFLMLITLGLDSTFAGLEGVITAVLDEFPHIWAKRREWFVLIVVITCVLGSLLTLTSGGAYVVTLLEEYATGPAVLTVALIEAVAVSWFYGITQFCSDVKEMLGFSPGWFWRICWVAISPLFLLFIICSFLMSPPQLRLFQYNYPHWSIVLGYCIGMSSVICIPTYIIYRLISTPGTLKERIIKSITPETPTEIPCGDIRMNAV

Row | SMILES | pIC50
1 | COC(=O)[C@H]1[C@@H](c2ccc(F)cc2)C[C@H]2CC[C@H]1N2C | 6.32
2 | COC(=O)[C@@H]1C2CC[C@H](C[C@@H]1c1ccc(I)cc1)N2C | 8.42
